Laboratory results as given in paper PMC5218480 (PLoS ONE, 2017).

Test system: MV-4-11 cells
Experiment: Gene expression microarray analysis (Affymetrix PrimeView) and GSEA
Format: cell-based, human
Set-up: RFU PODN (11730768_x_at) / Fold change /veh PODN (11730768_x_at) / RFU LINC00158 (11744669_a_at) / Fold change /veh LINC00158 (11744669_a_at) / RFU DUSP10 (11751237_a_at) / Fold change /veh DUSP10 (11751237_a_at) / RFU ID3 (11757404_x_at) / Fold change /veh ID3 (11757404_x_at) / RFU PLEKHG5 (11737974_s_at) / Fold change /veh PLEKHG5 (11737974_s_at) / RFU LRRC4B (11730491_at) / Fold change /veh LRRC4B (11730491_at) / RFU GIMAP4 (11747438_a_at) / Fold change /veh GIMAP4 (11747438_a_at) / RFU KRT8 (11758183_x_at) / Fold change /veh KRT8 (11758183_x_at) / RFU CNN1 (11734310_a_at) / Fold change /veh CNN1 (11734310_a_at) / RFU VPS37D (11726825_at) / Fold change /veh VPS37D (11726825_at) / RFU C10orf10 (11716522_x_at) / Fold change /veh C10orf10 (11716522_x_at) / RFU KIR2DL2 /// KIR2DL4 /// KIR2DL5A /// KIR2DL5B /// KIR2DS1 /// KIR2DS2 /// KIR2DS3 /// KIR2DS4 /// KIR3DL3 /// KIR3DL3 /// KIR3DS1 (11738374_at) / Fold change /veh KIR2DL2 /// KIR2DL4 /// KIR2DL5A /// KIR2DL5B /// KIR2DS1 /// KIR2DS2 /// KIR2DS3 /// KIR2DS4 /// KIR3DL3 /// KIR3DL3 /// KIR3DS1 (11738374_at) / RFU C1QL1 (11718748_at) / Fold change /veh C1QL1 (11718748_at) / RFU TMPRSS4 (11747572_a_at) / Fold change /veh TMPRSS4 (11747572_a_at) / RFU HAMP (11756126_x_at) / Fold change /veh HAMP (11756126_x_at) / RFU RNFT2 (11725882_a_at) / Fold change /veh RNFT2 (11725882_a_at) / RFU NR4A2 (11747474_a_at) / Fold change /veh NR4A2 (11747474_a_at) / RFU ABCC12 (11746883_a_at) / Fold change /veh ABCC12 (11746883_a_at) / RFU TMEM136 (11760407_x_at) / Fold change /veh TMEM136 (11760407_x_at) / RFU CLDN22 /// WWC2 (11732394_at) / Fold change /veh CLDN22 /// WWC2 (11732394_at) / RFU HLA-DPB1 (11760878_x_at) / Fold change /veh HLA-DPB1 (11760878_x_at) / RFU SPINT1 (11716480_a_at) / Fold change /veh SPINT1 (11716480_a_at) / RFU GAP43 (11754022_s_at) / Fold change /veh GAP43 (11754022_s_at) / RFU A4GNT (11735810_at) / Fold change /veh A4GNT (11735810_at) / RFU PRB3 (11715151_x_at) / Fold change /veh PRB3 (11715151_x_at) / RFU TUBB4B (11761932_at) / Fold change /veh TUBB4B (11761932_at) / RFU CAPN14 (11732068_a_at) / Fold change /veh CAPN14 (11732068_a_at) / RFU TMCC2 (11721928_a_at) / Fold change /veh TMCC2 (11721928_a_at) / RFU IRGQ (11745062_a_at) / Fold change /veh IRGQ (11745062_a_at) / RFU FAM174B (11720279_a_at) / Fold change /veh FAM174B (11720279_a_at) / RFU TMPRSS4 (11748680_a_at) / Fold change /veh TMPRSS4 (11748680_a_at) / RFU FAM212B (11763350_a_at) / Fold change /veh FAM212B (11763350_a_at) / RFU PLEKHG5 (11743358_a_at) / Fold change /veh PLEKHG5 (11743358_a_at) / RFU ZSCAN30 (11745921_a_at) / Fold change /veh ZSCAN30 (11745921_a_at) / RFU CMKLR1 (11741424_a_at) / Fold change /veh CMKLR1 (11741424_a_at) / RFU LOC101060620 /// MAPK8IP1 (11723275_at) / Fold change /veh LOC101060620 /// MAPK8IP1 (11723275_at) / RFU SPTSSB (11747773_x_at) / Fold change /veh SPTSSB (11747773_x_at) / RFU PRSS12 (11739890_at) / Fold change /veh PRSS12 (11739890_at) / RFU BIN1 (11741810_x_at) / Fold change /veh BIN1 (11741810_x_at) / RFU WNT11 (11732464_a_at) / Fold change /veh WNT11 (11732464_a_at) / RFU C10orf10 (11716521_a_at) / Fold change /veh C10orf10 (11716521_a_at) / RFU C5orf56 (11738089_at) / Fold change /veh C5orf56 (11738089_at) / RFU CYB561 (11721691_x_at) / Fold change /veh CYB561 (11721691_x_at) / RFU ANKRD19P (11752326_a_at) / Fold change /veh ANKRD19P (11752326_a_at) / RFU OR2T12 /// OR2T33 /// OR2T8 (11738714_s_at) / Fold change /veh OR2T12 /// OR2T33 /// OR2T8 (11738714_s_at) / RFU VCAN (11748164_a_at) / Fold change /veh VCAN (11748164_a_at) / RFU JSRP1 (11732532_at) / Fold change /veh JSRP1 (11732532_at) / RFU KRTAP10-11 (11738290_x_at) / Fold change /veh KRTAP10-11 (11738290_x_at) / RFU MYO3A (11730013_a_at) / Fold change /veh MYO3A (11730013_a_at) / RFU EBF3 (11725865_a_at) / Fold change /veh EBF3 (11725865_a_at) / RFU CAMK2N1 (11719241_x_at) / Fold change /veh CAMK2N1 (11719241_x_at) / RFU C5orf56 (11738088_a_at) / Fold change /veh C5orf56 (11738088_a_at) / RFU OLFML3 (11715873_a_at) / Fold change /veh OLFML3 (11715873_a_at) / RFU LOC100653217 /// NTM (11731650_a_at) / Fold change /veh LOC100653217 /// NTM (11731650_a_at) / RFU MAPK11 (11762145_a_at) / Fold change /veh MAPK11 (11762145_a_at) / RFU FIZ1 (11724087_x_at) / Fold change /veh FIZ1 (11724087_x_at) / RFU OASL (11726364_x_at) / Fold change /veh OASL (11726364_x_at) / RFU SOX15 (11748057_x_at) / Fold change /veh SOX15 (11748057_x_at) / RFU CD79A (11719716_a_at) / Fold change /veh CD79A (11719716_a_at) / RFU HIST1H1D (11736915_at) / Fold change /veh HIST1H1D (11736915_at) / RFU CASKIN2 (11723855_a_at) / Fold change /veh CASKIN2 (11723855_a_at) / RFU LOC730098 (11760151_x_at) / Fold change /veh LOC730098 (11760151_x_at) / RFU OR4N2 (11742367_at) / Fold change /veh OR4N2 (11742367_at) / RFU PRRT2 (11749266_a_at) / Fold change /veh PRRT2 (11749266_a_at) / RFU SNX32 (11753110_a_at) / Fold change /veh SNX32 (11753110_a_at) / RFU CDHR5 (11726645_a_at) / Fold change /veh CDHR5 (11726645_a_at) / RFU RCAN1 (11760418_a_at) / Fold change /veh RCAN1 (11760418_a_at) / RFU FAM167A (11723789_a_at) / Fold change /veh FAM167A (11723789_a_at) / RFU FAM26E (11764081_at) / Fold change /veh FAM26E (11764081_at) / RFU ISYNA1 (11749810_s_at) / Fold change /veh ISYNA1 (11749810_s_at) / RFU ACY1 (11761880_at) / Fold change /veh ACY1 (11761880_at) / RFU 11764098_at / Fold change /veh 11764098_at / RFU SAMD14 (11745864_x_at) / Fold change /veh SAMD14 (11745864_x_at) / RFU NPB (11741838_a_at) / Fold change /veh NPB (11741838_a_at) / RFU TMPRSS6 (11731388_a_at) / Fold change /veh TMPRSS6 (11731388_a_at) / RFU KRTAP10-2 (11738614_at) / Fold change /veh KRTAP10-2 (11738614_at) / RFU ARHGAP8 /// PRR5-ARHGAP8 (11727945_x_at) / Fold change /veh ARHGAP8 /// PRR5-ARHGAP8 (11727945_x_at) / RFU KRTAP5-7 /// NADSYN1 (11734609_at) / Fold change /veh KRTAP5-7 /// NADSYN1 (11734609_at) / RFU RASL12 (11751679_a_at) / Fold change /veh RASL12 (11751679_a_at) / RFU CDKN2B (11736163_a_at) / Fold change /veh CDKN2B (11736163_a_at) / RFU PRF1 (11729649_at) / Fold change /veh PRF1 (11729649_at) / RFU, ZNF638 /// ZNF638-IT1 / Fold change vs veh, ZNF638 /// ZNF638-IT1 / RFU, PANK3 / Fold change vs veh, PANK3 / RFU, SH3YL1 / Fold change vs veh, SH3YL1 / RFU, ZEB2 / Fold change vs veh, ZEB2 / RFU, NRIP1 / Fold change vs veh, NRIP1 / RFU, PTTG1IP / Fold change vs veh, PTTG1IP / RFU, CAPN2 / Fold change vs veh, CAPN2 / RFU, MED14 / Fold change vs veh, MED14 / RFU, SNORA58 / Fold change vs veh, SNORA58 / RFU, C1orf63 / Fold change vs veh, C1orf63 / RFU, LRRFIP1 / Fold change vs veh, LRRFIP1 / RFU, NDUFAF7 / Fold change vs veh, NDUFAF7 / RFU, SLC12A2 / Fold change vs veh, SLC12A2 / RFU, IBTK / Fold change vs veh, IBTK / RFU, ESF1 / Fold change vs veh, ESF1 / Fold change vs veh, TMEM50B / RFU, TAOK1 / Fold change vs veh, TAOK1 / RFU, ACBD3 / Fold change vs veh, ACBD3 / RFU, TMA16 / Fold change vs veh, TMA16 / RFU, RWDD3 / Fold change vs veh, RWDD3 / RFU, BCAT1 / Fold change vs veh, BCAT1 / RFU, EDEM3 / Fold change vs veh, EDEM3 / RFU, TMEM33 / Fold change vs veh, TMEM33 / RFU, WDR75 / Fold change vs veh, WDR75 / RFU, AHCTF1 / Fold change vs veh, AHCTF1 / RFU, TFRC / Fold change vs veh, TFRC / RFU, ZDHHC17 / Fold change vs veh, ZDHHC17 / RFU, NOM1 / Fold change vs veh, NOM1 / RFU, ARL8B / Fold change vs veh, ARL8B / RFU, ZBTB11 / Fold change vs veh, ZBTB11 / RFU, TAMM41 / Fold change vs veh, TAMM41 / RFU, KIAA1704 /// LOC100996395 / Fold change vs veh, KIAA1704 /// LOC100996395 / RFU, ING1 / Fold change vs veh, ING1 / RFU, TRMT61B / Fold change vs veh, TRMT61B / RFU, FUBP3 / Fold change vs veh, FUBP3 / RFU, TP53 / Fold change vs veh, TP53 / RFU, TNKS2 / Fold change vs veh, TNKS2 / RFU, ZFP14 / Fold change vs veh, ZFP14 / RFU, ACTR2 / Fold change vs veh, ACTR2 / RFU, PPP3R1 / Fold change vs veh, PPP3R1 / RFU, PIK3R1 / Fold change vs veh, PIK3R1 / RFU, HNRNPA1 / Fold change vs veh, HNRNPA1 / RFU, RNF170 / Fold change vs veh, RNF170 / RFU, ZNF28 / Fold change vs veh, ZNF28 / RFU, RNGTT / Fold change vs veh, RNGTT / RFU, OGT / Fold change vs veh, OGT / RFU, BRD1 / Fold change vs veh, BRD1 / RFU, MARS / Fold change vs veh, MARS / RFU, ZNF655 / Fold change vs veh, ZNF655 / RFU, FAHD1 / Fold change vs veh, FAHD1 / RFU, BDP1 / Fold change vs veh, BDP1 / RFU, LRRCC1 / Fold change vs veh, LRRCC1 / RFU, ARID1A / Fold change vs veh, ARID1A / RFU, ZNF146 / Fold change vs veh, ZNF146 / RFU, ZNF330 / Fold change vs veh, ZNF330 / RFU, GPN3 / Fold change vs veh, GPN3 / RFU, C9orf123 / Fold change vs veh, C9orf123 / RFU, N4BP2L2 / Fold change vs veh, N4BP2L2 / RFU, ARFIP1 / Fold change vs veh, ARFIP1 / RFU, FAM179B / Fold change vs veh, FAM179B / RFU, BCL10 / Fold change vs veh, BCL10 / RFU, UHRF1BP1L / Fold change vs veh, UHRF1BP1L / RFU, BET1 / Fold change vs veh, BET1 / RFU, CNOT2 / Fold change vs veh, CNOT2 / RFU, ZNF268 / Fold change vs veh, ZNF268 / Fold change vs veh, ZNF507 / RFU, DGCR2 / Fold change vs veh, DGCR2 / RFU, WDSUB1 / Fold change vs veh, WDSUB1 / Fold change vs veh, HSP90B1 /// MIR3652 / RFU, ADSS / Fold change vs veh, ADSS / RFU, GK / Fold change vs veh, GK / RFU, ZNF148 / Fold change vs veh, ZNF148 / RFU, TAF9 / Fold change vs veh, TAF9 / RFU, SLC1A5 / Fold change vs veh, SLC1A5 / RFU, SLMO2 / Fold change vs veh, SLMO2 / RFU, ABCC4 / Fold change vs veh, ABCC4 / RFU, LOC101060439 /// RAP1B / Fold change vs veh, LOC101060439 /// RAP1B / RFU, RFX7 / Fold change vs veh, RFX7 / RFU, GTPBP10 / Fold change vs veh, GTPBP10 / RFU, CNEP1R1 / Fold change vs veh, CNEP1R1 / RFU, BIVM-ERCC5 /// ERCC5 / Fold change vs veh, BIVM-ERCC5 /// ERCC5 / RFU, ILF3 / Fold change vs veh, ILF3 / RFU 11762660_at / Fold change /veh 11762660_at / RFU VCAN (11757783_s_at) / Fold change /veh VCAN (11757783_s_at) / RFU DDX43 (11728927_at) / Fold change /veh DDX43 (11728927_at) / RFU KRT8 (11758188_x_at) / Fold change /veh KRT8 (11758188_x_at) / RFU NKD1 (11759106_at) / Fold change /veh NKD1 (11759106_at) / RFU SRD5A1 (11742802_a_at) / Fold change /veh SRD5A1 (11742802_a_at) / RFU TPSAB1 /// TPSB2 (11721975_s_at) / Fold change /veh TPSAB1 /// TPSB2 (11721975_s_at) / RFU GSTM3 (11746129_a_at) / Fold change /veh GSTM3 (11746129_a_at) / RFU IL23R (11737362_x_at) / Fold change /veh IL23R (11737362_x_at) / RFU TMEM51 (11727254_a_at) / Fold change /veh TMEM51 (11727254_a_at) / RFU PIWIL2 (11732686_x_at) / Fold change /veh PIWIL2 (11732686_x_at) / RFU ORM1 (11744905_x_at) / Fold change /veh ORM1 (11744905_x_at) / RFU CCDC152 (11743942_at) / Fold change /veh CCDC152 (11743942_at) / RFU ECM1 (11717891_a_at) / Fold change /veh ECM1 (11717891_a_at) / RFU IL23R (11748794_a_at) / Fold change /veh IL23R (11748794_a_at) / RFU TNFAIP8L3 (11732012_x_at) / Fold change /veh TNFAIP8L3 (11732012_x_at) / RFU MBOAT4 (11741988_at) / Fold change /veh MBOAT4 (11741988_at) / RFU 11764193_at / Fold change /veh 11764193_at / RFU TMEM53 (11763286_at) / Fold change /veh TMEM53 (11763286_at) / RFU MAGEB2 (11727129_at) / Fold change /veh MAGEB2 (11727129_at) / RFU TMEM200A (11744735_a_at) / Fold change /veh TMEM200A (11744735_a_at) / RFU CCDC152 (11751479_a_at) / Fold change /veh CCDC152 (11751479_a_at) / RFU FAM211A (11726209_a_at) / Fold change /veh FAM211A (11726209_a_at) / RFU RGS16 (11746705_a_at) / Fold change /veh RGS16 (11746705_a_at) / RFU VCAN (11755009_s_at) / Fold change /veh VCAN (11755009_s_at) / RFU RHOB (11743442_s_at) / Fold change /veh RHOB (11743442_s_at) / RFU RGS16 (11720943_a_at) / Fold change /veh RGS16 (11720943_a_at) / RFU RGS16 (11720944_at) / Fold change /veh RGS16 (11720944_at) / RFU, VPS4B / Fold change vs veh, VPS4B / RFU, CREB1 / Fold change vs veh, CREB1 / RFU, DNAJC13 / Fold change vs veh, DNAJC13 / RFU, GNAQ / Fold change vs veh, GNAQ / RFU, CDK5R1 / Fold change vs veh, CDK5R1 / RFU, ZRANB3 / Fold change vs veh, ZRANB3 / RFU, CUL4A / Fold change vs veh, CUL4A / RFU, CCNY / Fold change vs veh, CCNY / RFU, UFL1 / Fold change vs veh, UFL1 / RFU, COG3 / Fold change vs veh, COG3 / RFU, DIAPH2 / Fold change vs veh, DIAPH2 / RFU, SKA2 / Fold change vs veh, SKA2 / RFU, AFF3 / Fold change vs veh, AFF3 / RFU, LMF1 / Fold change vs veh, LMF1 / RFU, IPO11 / Fold change vs veh, IPO11 / RFU, DFFB / Fold change vs veh, DFFB / RFU, FOXP1 / Fold change vs veh, FOXP1 / RFU, CARD8 / Fold change vs veh, CARD8 / RFU, STRN3 / Fold change vs veh, STRN3 / RFU, ADK / Fold change vs veh, ADK / RFU, RASSF2 / Fold change vs veh, RASSF2 / RFU, WIPF1 / Fold change vs veh, WIPF1 / RFU, LARP1B / Fold change vs veh, LARP1B / RFU, RASA1 / Fold change vs veh, RASA1 / RFU, RB1 / Fold change vs veh, RB1 / RFU, PPFIA1 / Fold change vs veh, PPFIA1 / RFU, MAT2A / Fold change vs veh, MAT2A / RFU, CCT5 / Fold change vs veh, CCT5 / RFU, WDR92 / Fold change vs veh, WDR92 / RFU, CUX1 / Fold change vs veh, CUX1 / RFU, TTC7A / Fold change vs veh, TTC7A / RFU, TMEM135 / Fold change vs veh, TMEM135 / RFU, DEPTOR / Fold change vs veh, DEPTOR / RFU, CPM / Fold change vs veh, CPM / RFU, DNAJB6 / Fold change vs veh, DNAJB6 / RFU, CACNA2D3 / Fold change vs veh, CACNA2D3 / RFU, DTX4 / Fold change vs veh, DTX4 / RFU, TFCP2 / Fold change vs veh, TFCP2 / RFU, GMCL1 /// GMCL1P1 / Fold change vs veh, GMCL1 /// GMCL1P1 / RFU, AEBP2 / Fold change vs veh, AEBP2 / RFU, SNHG1 /// SNORD22 /// SNORD25 /// SNORD26 /// SNORD27 /// SNORD28 /// SNORD29 /// SNORD31 / Fold change vs veh, SNHG1 /// SNORD22 /// SNORD25 /// SNORD26 /// SNORD27 /// SNORD28 /// SNORD29 /// SNORD31 / Fold change (Aza/veh), C12orf56 (ProbeSet 11735607_a_at) / Fold change (ACY-1035/veh), C12orf56 (ProbeSet 11735607_a_at) / Fold change (Aza/veh), FGFR1OP (ProbeSet 11751329_s_at) / Fold change (ACY-1035/veh), FGFR1OP (ProbeSet 11751329_s_at) / Fold change (Aza/veh), VPS36 (ProbeSet 11739960_a_at) / Fold change (ACY-1035/veh), VPS36 (ProbeSet 11739960_a_at) / RFU SYPL1 (11715823_x_at) / Fold change /veh SYPL1 (11715823_x_at) / RFU IGFBP7 (11715501_s_at) / Fold change /veh IGFBP7 (11715501_s_at) / RFU REEP3 (11722064_at) / Fold change /veh REEP3 (11722064_at) / RFU IGLL1 (11728026_x_at) / Fold change /veh IGLL1 (11728026_x_at): dose or concentration left out as unconfirmed
Settings: ProbeSet 11745428_a_at; LIST D

With Nc1ncn([C@@H]2O[C@H](CO)[C@@H](O)[C@H]2O)c(=O)n1 [azacitidine] the “RFU, DFFB” value was 92.76 RFU.
